Experimental data from PMC12019622 (World Journal of Experimental Medicine, 2025).
Each block holds one compound with its values, some of them ahead of it.

Legend:
[1] = system: HKBMM malignant meningioma cell line; assay: Growth inhibition experiment; assay type: cell-based; conditions: read-out: IC50 value
[2] = system: blood-brain barrier (BBB); conditions: cited from earlier work
[3] = system: IOMM-Lee malignant meningioma cell line; assay: Growth inhibition experiment; assay type: cell-based; conditions: read-out: IC50 value
[4] = Tissue distribution: blood concentration and brain distribution by HPLC; assay type: in vivo, C57BL/6 (B6) mice; conditions: male, C57BL/6, mouse, intraperitoneal, 2 mg/kg
Malignant meningioma = conditions: clinical, cited from earlier work; for partial response (PR) rate: malignant meningioma

IC50 [1]: 4.5 µM
IC50 [3]: 4.3 µM
SMILES: COc1cc(C=CC(=O)C=Cc2ccc(O)c(OC)c2)ccc1O [GO-Y022, 1,5-bis (4-hydroxy-3-methoxyphenyl)-1,4-pentadiene-3-one]
permeability across the blood-brain barrier (BBB) [2]: 8.2 ± 1.3 × 10^−6 cm/s

concentration at 1 h ([4]; brain): 0 ng/g
concentration at 3 h ([4]; brain): 26.8 ng/g
concentration at 6 h ([4]; brain): 23.1 ng/g
concentration at 1 h ([4]; serum): 18 ng/mL
concentration at 3 h ([4]; serum): 46.7 ng/mL
concentration at 6 h ([4]; serum): 58.2 ng/mL
SMILES: COCOc1cc(/C=C/C(=O)/C=C/c2cc(OCOC)cc(OCOC)c2)cc(OCOC)c1 [GO-Y030, (1E,4E)-1,5-bis [3,5-bis (methoxymethoxy)phenyl] penta-1,4-dien-3-one]

SMILES: CCN(CC)CCNC(=O)c1c(C)[nH]c(/C=C2\C(=O)Nc3ccc(F)cc32)c1C [Sunitinib]
6-month progression-free survival rate (Malignant meningioma; meningioma): 42%
PR rate (Malignant meningioma; meningioma): 5.55%

IC50 [1]: 20 µM
IC50 [3]: 13.3 µM
SMILES: COc1cc(/C=C/C(=O)CC(=O)/C=C/c2ccc(O)c(OC)c2)ccc1O [curcumin, Curcumin, reference compound]
permeability across the blood-brain barrier (BBB) [2]: 0.60 ± 0.67 × 10^−6 cm/s

SMILES: NC(=O)NO [hydroxyurea]
partial response (PR) rate (Malignant meningioma): 0%-10%

SMILES: CC#C[C@]1(O)CC[C@H]2[C@@H]3CCC4=CC(=O)CCC4=C3[C@@H](c3ccc(N(C)C)cc3)C[C@@]21C [mifepristone]
partial response (PR) rate (Malignant meningioma): 1.4%-30.76%

SMILES: CC/C(=C(\c1ccccc1)c1ccc(OCCN(C)C)cc1)c1ccccc1 [tamoxifen]
partial response (PR) rate (Malignant meningioma): 5%-16.66%
